# US12551469B2 (priority 2020, dated 2026)
# Assays:
# [1] = system: human bronchial epithelial cells (HBEC); settings: male
# [2] = system: SARS-CoV-2 clinical isolate (2019-nCoV/USA-WA1/2020); assay: Anti-viral activity against SARS-CoV-2 in HBEC (EpiAirway) ALI cultures, apical viral titer by TCID50 assay; format: cell-based
# COVID-19 pneumonia = assay: Randomized, double-blind, placebo-controlled Phase 2a study of opaganib in COVID-19 pneumonia; format: in vivo, human
# From the text: This was a phase 2a, proof of concept, multi-center randomized double-blind, parallel arm, placebo-controlled study. After informed consent was obtained, patients entered a screening phase for no more than 3 days, to determine eligibility. […] Treatment assignments remained blinded to the patient, investigator and hospital staff, as well as the sponsor. As there was no consensus for a definitive treatment specifically targeting the SARS-CoV-2 virus causing COVID-19 (Wilson, 2020), standard of care referred to regional, institutional or physician directed therapies, that were implemented during the COVID-19 pandemic.
# Study drug was to be administered every day for 14 days (Day 1 to Day 14), unless the patient had been discharged from the hospital without requiring supplemental oxygen, in which case study drug would only be administered to Day 10.
# Two patients were randomized in each group but not treated. […] Two patients in the opaganib arm experienced adverse events such that study drug was terminated, while one placebo patient was terminated due to an adverse event.
# The primary efficacy endpoint calculated for each patient the area under the curve of the supplemental oxygen requirement through day 14, using the trapezoidal rule after subtracting the baseline oxygen requirement at each day. Days where no supplementary oxygen was needed, were recorded as 0. If several values of oxygen requirement (L/min) are recorded in a certain day, for the primary analysis the highest of these values were taken. In the primary analysis, for patients who die before Day 14, or require intubation and mechanical ventilation, missing daily values were assigned the maximal supplemental oxygen flow requirement of 8 L/min. […]
# Supplemental oxygen requirement up to Day 14 was collected even if a patient discontinued treatment prior to Day 14 but continued in the study to Day 14. […] A sensitivity analysis to the above missing data handling approach was performed using an AUC summary statistics approach, in which groups AUC is calculated from the estimated parameters of a Repeated-Measures model. […]
# COVID-19 infection = assay: Pilot / compassionate use study of opaganib in hospitalized patients with COVID-19 pneumonia; format: in vivo, human
# Method: Patients entered a screening period of up to 1 week. Eligible patients entered the treatment period for up to 2 weeks. All participants were followed for 2 weeks after their last dose of study drug, at the end of the 2 week treatment period, or once they had 2 consecutive daily negative viral swabs for the COVID-19 virus or at after premature drug discontinuation prior to Day 14. The maximum duration of study participation was 35 days […].
# Each dose is administered with food or 15-30 minutes after tube-feeding, where appropriate. […] These patients had moderate to severe COVID-19-related pneumonia with hypoxia on supplemental oxygen.
# Five patients were included in the analysis, and for comparison purposes, we used a control group with same-sex, same-severity patients (baseline characteristics). Univariate comparisons between the groups were performed with chi-square test for categorical variables and t-test or MannWhitney U-test for continuous variables, as appropriate. Time variables were compared with Cox proportional hazard regression, adjusted for age and background illnesses. CRP and lymphocyte changes were compared utilizing a repeated measures general linear model with a Bonferroni correction for multiple comparison.
# ARDS induced thrombosis = assay: Rat venous stasis (Wessler) model after LPS-induced lung injury (ARDS); format: in vivo, Sprague-Dawley rats
# From the text: This study assessed the efficacy of ABC294640 to reduce the incidence of adverse thromboembolic events in situ in acute respiratory distress syndrome (ARDS) conditions using a rat venous stasis model. This assay is designed to measure thrombotic risks following LPS-induced lung injury. LPS-induced lung injury is one of the most commonly used rodent models for ARDS and was described to mimic the neutrophilic inflammatory response observed in ARDS patients. The mechanism of LPS-induced ARDS is based on damage to endothelial cells and a systemic inflammatory response.
# The venous stasis (Wessler) test in animals has been used extensively for over 40 years as a laboratory measure for in vivo hypercoagulability.
# Test compound was administered by oral gavage 3 hours post-instillation and 24, 48 and 72 hours post-instillation, at a dose of 250 mg/kg. The appropriate amount of LPS from E. coli (O55:B5) was diluted in saline to obtain a final concentration of 400 μg/mL. This solution was given by intratracheal instillation (0.5 mL/kg). The vehicle was composed of PBS pH 7.4±0.1. ABC294640 was weighed and transferred in vehicle (PBS, 0.375%, pH 7.4) to obtain a final solution at 25 mg/mL. ABC294640 solution is stirred for 10 minutes at room temperature prior to dosing. This solution was given by oral gavage (250 mg/kg, 10 mL/kg).
# Sprague-Dawley rats (male) weighing between 275 and 400 g were used for this study. Animals were randomly assigned to a treatment group by the Study Director. Food and water were given ad libitum. Observation for behavior and general health status were done until the sacrifice. The body weight was recorded before the instillation and 24, 48 and 72 hours post-instillation.
# In this study, ARDS was induced by intratracheal instillation of LPS. Throughout the ARDS induction and development process, animal was dosed by oral gavage with vehicle or ABC294640 (3 h, 24 h, 48 and 72 hours post-instillation). […] The stasis was maintained for 30 minutes. The segment was then excised and its content scored. Subsequently, animal was euthanized by exsanguination.
# • 1. Prior LPS or saline instillation, the functional respiratory parameters of all rat was assessed by whole-body plethysmography and SpO2 was evaluated on conscious rat with a collar probe pulse oximeter. Rat was first acclimatized to the plethysmograph chamber prior to the physiological assessment. The respiratory rate, the Penh and the inspiratory/expiratory time measurements was analyzed. • 2. […]
# • 5. Rats were evaluated periodically to ensure animal well-being (general behavior and daily body weight). • 6. […] SpO2 and whole-body plethysmography were also evaluated 24, 48 and 72 hours post-instillation. • 8. […] The thrombi was measured, weighed and scored on a scale from 0 to 4 (see Table 2).
compound,measurement,setting,value
"Cl.O=C(NCc1ccncc1)C12CC3CC(C1)CC(c1ccc(Cl)cc1)(C3)C2 [opaganib, 3-(4-chlorophenyl)-adamantane-1-carboxylic acid (pyridin-4-ylmethyl) amide, hydrochloride salt]",50% cytotoxicity reached in concentration range tested,[1],neither 50% inhibition nor 50% cytotoxicity were reached
same,50% inhibition reached in concentration range tested,[2]; 0.05 to 11.25 μg/ml,neither 50% inhibition nor 50% cytotoxicity were reached
same,concentration at which complete inhibition of infectious virus production starts,[2]; 3 days incubation,1 µg/mL
same,infectious virus production,"[2]; opaganib 0.05 to 11.25 μg/ml, 3 days incubation",dose-dependent reduction in infectious virus production
same,patients with adverse events such that study drug was terminated,"COVID-19 pneumonia; opaganib arm, one placebo patient",Two
same,patients with serious adverse events (SAEs) vs. placebo arm,COVID-19 pneumonia; top-line results,fewer patients suffered from serious adverse events (SAEs)
same,safety vs. placebo arm,COVID-19 pneumonia; top-line results,"safe, with no material safety differences"
same,Clinical Assessment,"COVID-19 infection; Patient 1 (14 d), started as severe on maximal OptiFlow 3 Apr. 2020, one negative viral swab as of 22 April",3 Apr. 2020; RA by 16 April.
same,Clinical Assessment,"COVID-19 infection; Patient 2 (14 d), started as severe+, planning for intubation 7 Apr. 2020, RA by 20 Apr. 2020, D/C on 22 Apr. 2020",7 Apr. 2020; RA by 20
same,Clinical Assessment,"COVID-19 infection; Patient 3 (7 d), moderate-severe, on OptiFlow 13 Apr. 2020, RA by 17 Apr. 2020, D/C on 19 Apr. 2020",13 Apr. 2020; RA by
same,Clinical Assessment,"COVID-19 infection; Patient 4 (11 d), started severe+ 70% OptiFlow on 13 Apr. 2020",RA on 22 Apr. 2020
same,Clinical Assessment,"COVID-19 infection; Patient 5 (2 d), started moderate on 13 Apr. 2020, nasal cannula, after one day on opaganib, D/C on 14 Apr. 2020 on RA",Dramatic improvement
same,C-Reactive Protein (CRP) change,COVID-19 infection; all six patients,reduction in C-Reactive Protein (CRP)
same,"clinical improvement, including reduced supplemental oxygenation and higher lymphocyte counts",COVID-19 infection; all six patients,measurable clinical improvement
same,cases requiring mechanical ventilation,COVID-19 infection; compared with 33% of controls,none of the cases required mechanical ventilation
same,lymphocyte count increase vs. matched controls,"COVID-19 infection; five patients vs same-sex, same-severity control group",significantly faster increase in lymphocyte count
same,patients back to breathing room air,COVID-19 infection; of 6 treated patients,5 patients
same,patients discharged from hospital,COVID-19 infection; of 6 treated patients,3 patients
same,moderate to-severe patients improved significantly,"COVID-19 infection; of seven compassionate use patients, patient #7 had only 1 day of treatment",6 patients
"O=C(NCc1ccncc1)C12CC3CC(C1)CC(c1ccc(Cl)cc1)(C3)C2 [ABC294640, 3-(4-chlorophenyl)-adamantane-1-carboxylic acid (pyridin-4-ylmethyl)amide]",blood clot length,ARDS induced thrombosis; 250 mg/kg oral gavage,reduction
same,blood clot weight,ARDS induced thrombosis; 250 mg/kg oral gavage,reduction
same,thrombosis,"ARDS induced thrombosis; 250 mg/kg oral gavage 3, 24, 48, 72 h post LPS instillation, 30 min stasis",reduction of thrombosis
same,total thrombus score,"ARDS induced thrombosis; 250 mg/kg oral gavage, score 0 to 4",reduction
